In PubChem BioAssay (NCI):
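These data come from cells grown in 96-well plates and exposed to compound for 48 hours at five concentrations. Abbreviation: GI50, concentration required for 50% inhibition of growth. TGI: total growth inhibition.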

Assays:
Experiment in all cases: growth of human tumour cells (NCI), 48 h
SK-OV-3 ovarian = system: SK-OV-3 ovarian
NCI-H460 lung = system: NCI-H460 lung
UACC-62 melanoma = system: UACC-62 melanoma
RPMI-8226 leukemia = system: RPMI-8226 leukemia
ACHN renal = system: ACHN renal
TK-10 renal = system: TK-10 renal
MCF7 breast = system: MCF7 breast
HT29 colon = system: HT29 colon
SNB-75 CNS = system: SNB-75 CNS
MDA-MB-231 breast = system: MDA-MB-231 breast

| SMILES | GI50 (SK-OV-3 ovarian) [nM] | TGI (SK-OV-3 ovarian) [µM] | GI50 (NCI-H460 lung) [nM] | TGI (NCI-H460 lung) [µM] | GI50 (UACC-62 melanoma) [nM] | TGI (UACC-62 melanoma) [µM] | GI50 (RPMI-8226 leukemia) [nM] | TGI (RPMI-8226 leukemia) [µM] | GI50 (ACHN renal) [nM] | TGI (ACHN renal) [µM] | GI50 (TK-10 renal) [µM] | TGI (TK-10 renal) [µM] | GI50 (MCF7 breast) [nM] | TGI (MCF7 breast) [µM] | GI50 (HT29 colon) [nM] | TGI (HT29 colon) [µM] | GI50 (SNB-75 CNS) [nM] | TGI (SNB-75 CNS) [µM] | GI50 (MDA-MB-231 breast) [nM] | TGI (MDA-MB-231 breast) [µM] |
| --- | --- | --- | --- | --- | --- | --- | --- | --- | --- | --- | --- | --- | --- | --- | --- | --- | --- | --- | --- | --- |
| COc1ccc(OC)c(C2SCC(=O)N2NC(=O)C(O)c2ccccc2)c1 (stereo not given) | > 100000 | > 100 | > 100000 | > 100 | > 100000 | > 100 | > 100000 | > 100 | > 100000 | > 100 | > 100 | > 100 | > 100000 | > 100 | > 100000 | > 100 | > 100000 | > 100 | > 100000 | > 100 |
| COc1cc2c(c(OC)c1OC)-c1ccc(SC)c(=O)cc1[C@@H](NC1OC(CO)C(O)C(O)C1O)CC2 (stereo not given in full) | 39.6 | > 100 | 33.2 | > 100 | 54.9 | > 100 | 44.4 | > 100 | 74.4 | > 100 | 0.0478 | 31.2 | 21.5 | > 100 | 28 | 0.0794 | 43.9 | > 100 | 34.1 | > 100 |
| COc1ccc(-c2cc(=O)c3c(OC)c(OC)c(OC)c(OC)c3o2)cc1 |  | > 100 |  | > 100 |  | 84 |  | > 100 |  | > 100 |  | > 100 |  | > 100 |  | > 100 |  | > 100 |  | > 100 |
| CCCCCn1sc(=O)n(Cc2ccc(CNC(=O)OCc3ccc4cccc(O)c4n3)cc2)c1=O | 4580 | 18.4 | 1800 | 3.78 | 1510 | 2.87 | 1560 | 11.2 | 1230 | 2.47 | 1.19 | 3.05 | 1340 | 3.7 | 1890 | 3.35 | 1140 | 4.52 | 1320 | 2.63 |
| BrCc1ccc(CBr)cc1 | 477 | 7.24 | 4840 | 17.4 | 5130 | 22.3 | 3100 | 13.3 | 1940 | 6.78 | 1.58 | 5.99 | 1890 | > 21.7 | 4380 | > 23.9 | 18800 | > 100 | 13900 | 35.1 |
| Cc1cccc(NC(=O)c2sc3nc4c(cc3c2N)CN(Cc2ccccc2)CC4)c1C | 216 | > 50 | 196 | > 50 | 274 | > 50 | 198 | > 50 | 409 | > 50 | 5.36 | > 50 | 151 | > 50 | 147 | 1.6 | 112 | 0.419 | 432 | > 50 |
| CC(=O)c1c(C(F)(F)F)n([O-])c2ccc(C)cc2[n+]1=O | 5020 | > 100 | 1390 | > 39.8 | 1310 | 3.34 | 686 | 4.04 | 3440 | 20.4 | 5.07 | > 50.5 | 4000 | > 100 | 4960 | > 100 | 3280 | 18.1 | 1820 | 5.52 |
| COc1ccc(C(=O)N2c3ccccc3Sc3ccccc32)c(OC)c1 | 715 | > 100 | 406 | > 100 | 321 | > 100 | 523 | 29.9 | 726 | > 100 | > 100 | > 100 | 450 | > 100 | 385 | > 100 | 209 | > 100 | 830 | > 100 |
| CCN1C(=O)N(CC)C2C1NN=c1s/c(=C\c3ccccc3Br)c(=O)n12 (stereo not given) | 66.7 | > 100 | 33.7 | 4.14 | 278 | 20.6 | 33.3 | 8.76 | 43.7 | > 61.6 | 12.5 | > 100 | 32.8 | 16.5 | 34.8 | 14 | 26.2 | 2.22 | 34.7 | 11.4 |
| Cc1ccc(C2=Nc3ccccc3SC(c3cccc([N+](=O)[O-])c3)C2)cc1 (stereo not given) |  | > 100 |  | > 100 |  | > 100 |  | 5.19 |  | > 100 |  | 86.8 |  | > 100 |  | > 100 |  | 38.6 |  | > 100 |
| CCOc1nc(N)nc(C)c1N=Nc1ccc(Cl)cc1 |  | > 100 |  | > 100 |  | > 100 |  | 88.4 |  | > 100 |  | > 100 |  | > 100 |  | > 100 |  | > 100 |  | > 100 |
| COc1ccc2cc(-c3c(-c4ccncc4)nc(-c4ccc(S(C)=O)cc4)n3C)ccc2c1 (stereo not given) | 10700 | > 25 | 24800 | > 25 | 21000 | > 25 | 17000 | > 25 | 20200 | > 25 | > 21.8 | > 25 | > 19600 | > 25 | 9060 | > 25 | > 12800 | > 25 | > 25000 | > 25 |
| CCN(CCO)CC(C)Nc1ccc([N+](=O)[O-])c2sc3ccccc3c(=O)c12 (stereo not given) | 2530 | 14 | 379 | 2.27 | 1630 | 12.8 | 1260 | 4 | 1010 | 12.1 | 1.44 | 11.7 | 436 | 4.15 | 1420 | 3.62 | 1840 | 12.6 | 2600 | 12.3 |
| COC(=O)c1nc(-c2ccccc2)oc1S(=O)(=O)n1nc(C)cc1N | 45500 | > 100 | 17600 | 36.3 | 13700 | 28.1 | 5390 | 23.4 | 1710 | 3.11 | 11.3 | 24.6 | 6950 | 27.5 | 16400 | 36.5 | 13200 | 26.6 | 9030 | 21.8 |
| CN(C)CC1CCCC1=O (stereo not given) |  | 28.6 |  | 34.6 |  | 11.2 |  | 1.93 |  | 7.08 |  | 8.04 |  | 7.03 |  | 2.06 |  | 9.6 |  | 7.06 |
| N#CN1CC[C@H](C(=O)Nc2ncc(-c3ccncc3)s2)C1 | 1150 | > 30.9 | < 20.8 | 14.3 | < 17.2 | 1.32 | < 20.1 | 1.27 | 34.8 | > 100 | 0.109 | 6.18 | < 10.9 | > 70.2 | < 19.7 | 1.96 | < 14.8 | 0.53 | < 26.6 | > 50.2 |
| CCn1c2ccccc2c2cc(/C=C(/C#N)C(N)=O)ccc21 | 21800 | > 78.1 | 1670 | 13.3 | 1910 | 7.65 | 7940 | > 84.7 | > 76000 | > 100 | 2.31 | > 28.8 | 857 | > 47.3 | 5180 | > 100 | 16100 | 44.1 | 21000 | > 100 |
| N/N=C1\CC(=O)NC(=O)N1 |  | > 100 |  | > 100 |  | > 100 |  | > 100 |  | > 100 |  | > 100 |  | > 100 |  | > 100 |  | > 100 |  | > 100 |
| CCN(Cc1ccc(Cl)s1)c1ccc(CO)c(Cl)c1 | 2740 | 18.2 | 202 | 10 | 86.1 | 0.438 | 1410 | 24.5 | 4680 | > 100 | 0.0452 | 0.221 | 119 | 12.3 | 3010 | 16.4 | 2180 | 21.6 | 8740 | 26.4 |
| Cn1cc(-c2nonc2-c2cn(C)c3ccccc23)c2ccccc21 | 1280 | > 100 | 579 | > 100 | 442 | > 100 | 967 | > 100 | 1470 | > 100 | 6.23 | > 100 | 591 | > 100 | 519 | > 100 | 176 | 0.842 | 1350 | > 100 |
| COc1ccc(/C=N/NC(=O)Cn2c(-c3ccc(S(C)(=O)=O)cc3)nc3cc(Cl)ccc32)cc1 | 1720 | > 50 | 1510 | > 50 | 709 | > 50 | 1430 | 11.4 | 2130 | > 50 | 4.7 | > 50 | 1920 | > 50 | 689 | 7.19 | 1050 | > 50 | 2480 | > 50 |
